Measured values: ChEMBL document CHEMBL1138412, “Chalcone based aryloxypropanolamines as potential antihyperglycemic agents” (2007)

Key:
Rattus norvegicus [1] = organism: Rattus norvegicus; assay: Antihyperglycemic activity in streptozotocin induced diabetic model of Sprague-Dawley albino rat assessed as reduction in blood glucose by AUC method; type: functional; set-up: scale not given: the % may be the effect or the level left
Rattus norvegicus [2] = organism: Rattus norvegicus; assay: Antihyperglycemic activity in sucrose loaded model of Sprague-Dawley albino rat assessed as reduction in blood glucose by AUC method; type: functional; set-up: scale not given: the % may be the effect or the level left

O=C(/C=C/c1ccc(OCC(O)CN2CCCCC2)cc1)c1ccccc1 (stereo unspecified)
Activity (Rattus norvegicus [1]): 19.3% | Activity (Rattus norvegicus [2]): 22.3%

CC(C)CNCC(O)COc1ccc(/C=C/C(=O)c2ccccc2)cc1 (stereo unspecified)
Activity (Rattus norvegicus [2]): 6.5%

O=C(/C=C/c1cccc(OCC(O)CN2CCN(c3ccccc3Cl)CC2)c1)c1ccccc1 (stereo unspecified)
Activity (Rattus norvegicus [1]): 8.3% | Activity (Rattus norvegicus [2]): 19%

CC(C)(C)NCC(O)COc1ccc(/C=C/C(=O)c2ccccc2)cc1 (stereo unspecified)
Activity (Rattus norvegicus [1]): 10.3% | Activity (Rattus norvegicus [2]): 29%

O=C(/C=C/c1cccc(OCC(O)CN2CCCCC2)c1)c1ccccc1 (stereo unspecified)
Activity (Rattus norvegicus [1]): 9.4% | Activity (Rattus norvegicus [2]): 11.3%

CC(C)CNCC(O)COc1cccc(/C=C/C(=O)c2ccccc2)c1 (stereo unspecified)
Activity (Rattus norvegicus [2]): 14.5%

O=C(/C=C/c1cccc(OCC(O)CN2CCN(c3ccccc3)CC2)c1)c1ccccc1 (stereo unspecified)
Activity (Rattus norvegicus [1]): 10.4% | Activity (Rattus norvegicus [2]): 22.9%

O=C(/C=C/c1ccc(OCC(O)CN2CCN(c3ccccc3)CC2)cc1)c1ccccc1 (stereo unspecified)
Activity (Rattus norvegicus [1]): 3% | Activity (Rattus norvegicus [2]): 31.1%

CN1CCN(CC(O)COc2cccc(/C=C/C(=O)c3ccccc3)c2)CC1 (stereo unspecified)
Activity (Rattus norvegicus [1]): 20.1% | Activity (Rattus norvegicus [2]): 20.4%

CC(C)N(CC(O)COc1cccc(/C=C/C(=O)c2ccccc2)c1)C(C)C (stereo unspecified)
Activity (Rattus norvegicus [1]): 22.6% | Activity (Rattus norvegicus [2]): 26.7%

CC(C)N(CC(O)COc1ccc(/C=C/C(=O)c2ccccc2)cc1)C(C)C (stereo unspecified)
Activity (Rattus norvegicus [2]): 7.9%

CC(C)(C)NCC(O)COc1cccc(/C=C/C(=O)c2ccccc2)c1 (stereo unspecified)
Activity (Rattus norvegicus [1]): 10.6% | Activity (Rattus norvegicus [2]): 21.7%

CCN(CC)CCCNCC(O)COc1cccc(/C=C/C(=O)c2ccccc2)c1 (stereo unspecified)
Activity (Rattus norvegicus [1]): 8.3% | Activity (Rattus norvegicus [2]): 20.8%

COc1ccc(Cl)cc1C(=O)NCCc1ccc(S(=O)(=O)NC(=O)NC2CCCCC2)cc1 [GLYBURIDE]
Activity (Rattus norvegicus [1]): 29% | Activity (Rattus norvegicus [2]): 33.7%

CN(C)C(=N)NC(=N)N [METFORMIN]
Activity (Rattus norvegicus [2]): 12.9%
